Read-outs that look alike come from different tables or passages of the source.
Legend:
EGFRΔ19del/T790M/C797S = EGFRΔ19del/T790M/C797S (Homo sapiens, UniProt P00533, T790M/C797S, form not given); test: EGFR Δ19del/T790M/C797S kinase test (mobility variation analysis, Caliper EZ Reader); format: biochemical; settings: kinase enzymatic activity, Table 1
Protocol: (§1) Mobility variation analysis was performed to determine the affinity of the compound for EGFRΔ19del/T790M/C797S, EGFR WT and IGF1R. The enzymatic reaction scheme is as follows:
(§2) 1. Prepare 1*kinase buffer as follows.
(§3) 3. […] Prepare 2.5-fold final concentration of kinase solution with 1×Kinase buffer.
(§4) 4. Add 10 μL of 2.5-fold final concentration of kinase solution to the compound well and the positive control well; add 10 μL of 1×Kinase buffer to the negative control well.
(§5) 5. Centrifuge at 1000 rpm for 30 s, shake the reaction plate for well mixing, and then incubate at room temperature for 10 minutes.
(§6) 6. Prepare a mixture of ATP and Kinase substrate at 5/3-fold final concentration with 1×Kinase buffer.
(§7) 8. Centrifuge the 384-well plate at 1000 rpm for 30 s, shake it well and then incubate it at room temperature for corresponding time.
(§8) 9. Add 30 μL of stop detection solution to stop the kinase reaction, centrifuge at 1000 rpm for 30 s, and shake it well.
(§9) 10. Read conversion rate with Caliper EZ Reader.
(§10) % Inhibition=((Conversion%_max−Conversion%_sample)/(Conversion%_max−Conversion%_min))*100
(§11) Wherein: Conversion%_sample is the sample conversion rate reading; Conversion%_min: Mean value of negative control wells, representing the conversion rate reading of wells without enzymatic activity; Conversion%_max: Mean value of positive control wells, representing the conversion rate reading of wells without compound inhibition.
(§12) The dose-effect curve was fitted with concentration log value as X-axis and percentage inhibition rate as Y-axis. GraphPad Prism 5 analysis software was used for fitting Log (inhibitor) vs. response—Variable slope with the dose-effect curve to obtain IC50 value of enzymatic activity for each compound.
(§13) The calculation formula is as Y-Bottom+(Top-Bottom)/(1+10^((Log IC50−X)*HillSlope)).

[1] = molecular target: Ba/F3 cells with EGFR Δ19del/T790M/C797S mutation gene stably overexpressed (Homo sapiens, UniProt P00533, T790M/C797S, cells depend on it, form not given); test: Ba/F3-Δ19del/T790M/C797S cell proliferation assay (CellTiter Glo, 72 hours); format: cell-based; settings: Table 2, read-out: EGFR Δ19del/T790M/C797S IC50
Protocol: (§14) Cell line: Ba/F3 cells with EGFR Δ19del/T790M/C797S mutation gene stably overexpressed named Ba/F3-Δ119del/T90M/C797S, and A431 and Ba/F3-EGFR wild-type cell line.
(§15) a) Centrifuge the growth cells in logarithmic phase at 1000 rpm for 5 minutes, resuspend the cells in culture medium, and then count the cells;
(§16) b) Inoculate the cells into a 96-well cell culture plate with a density of 2000 cells/well;
(§17) b) Incubate cells in an incubator for another 72 hours.
(§18) a) Take out the 96-well cell culture plate and add 50 μl CTG reagent (CellTiter Glo kit, promega, Cat #G7573);
(§19) b) Shake the plate for 2 minutes and let cool at room temperature for 10 minutes;
(§20) c) Read luminous signal value with PerkinElmer reader,
(§21) Analysis of Experimental Data
(§22) The data were analyzed by GraphPad Prism 6.0 software to obtain the fitting curve of compound activity.
(§23) Y=Min+(Max−Min)/(1+10^((Log IC50−X)*slope));
(§24) X: Logarithm of compound concentration; Y: luminous signal.

A431 = A431 cell proliferation assay (CellTiter Glo, 72 hours); format: cell-based; settings: cell proliferation, A431, 72 hours, Table 2, read-out: A431 IC50
Protocol: as §14
RPMI 1640 and 10% FBS and 1% PS; DMEM and 10% FBS and 1% PS.
a) Dilute the test compound (20 mM stock solution) to 10 mM with 100% DMSO as the starting concentration, and then serially dilute 3 times with a “9+0” concentration in 96-well dilution plate (Cat #P-05525, Labcyte);
b) Dilute compound solution thereof to 1:100 (1:20 for comparative compound 1 and compounds 1-38) in medium to prepare 10-fold working solution;
as §15, §16
a) Compounds prepared at step 2 were added to cell plate with 15 μl per well, the final concentrations were 1000, 333, 111.1, 37, 12.3, 4.1, 1.4, 0.5, 0.2 and 0 nM, and the final concentration of DMSO was 0.1%. The blank control well was a culture medium (0.1% DMSO) (the blank control well of comparative compound 1 and compounds 1-38 was a culture medium (0.5% DMSO).
as §17, §18, §19, §20, §21, §22
Fitting compound IC50 from nonlinear regression equation:
as §23, §24

IGF1R = IGF1R (Homo sapiens, UniProt P08069); test: IGF1R kinase test (mobility variation analysis, Caliper EZ Reader); format: biochemical; settings: kinase enzymatic activity, Table 1; read-out: EGFR IGF1R IC50
Protocol: as §1, §2
2. Preparation of compound concentration gradient: The test compound was tested with an initial concentration of 3000 nM (300 nM for some triple mutations and 100 nM for others), diluted in a 384 source plate (96-well plate for comparative compound 1 and compounds 1-38) to a 100% DMSO solution with 100-fold final concentration, and the compound is 3-fold diluted with Precision to 10 concentrations. A dispenser Echo 550 was used to transfer 250 nL 100-fold final concentration of the compound to the target plate OptiPlate-384F.
3. Prepare 2.5-fold final concentration (5-fold for comparative compound 1 and compounds 1-38) of kinase solution with 1×Kinase buffer. Following steps should also be carried out for comparative compound 1 and compounds 1-38: Add each prepared intermediate dilution compounds to the compound wells of 384-well plate respectively, and test the repeated wells of each concentration; add 5% DMSO of 5 plates into the negative control well and the positive control well respectively. Prepare 2.5-fold final concentration of kinase solution with 1×Kinase buffer.
as §4, §5, §6
7. Add 15 μL mixture of 5/3-fold (2.5-fold for comparative compound 1 and compounds 1-38) final concentration of ATP and substrate to start reaction.
as §7, §8, §9, §10, §11, §12, §13

EGFR WT = EGFR WT (Homo sapiens, UniProt P00533); test: EGFR WT kinase test (mobility variation analysis, Caliper EZ Reader); format: biochemical; settings: kinase enzymatic activity, Table 1
Protocol: as §1, §2, §3, §4, §5, §6, §7, §8, §9, §10, §11, §12, §13

Sequence of IGF1R (P08069 31-1367, species assumed): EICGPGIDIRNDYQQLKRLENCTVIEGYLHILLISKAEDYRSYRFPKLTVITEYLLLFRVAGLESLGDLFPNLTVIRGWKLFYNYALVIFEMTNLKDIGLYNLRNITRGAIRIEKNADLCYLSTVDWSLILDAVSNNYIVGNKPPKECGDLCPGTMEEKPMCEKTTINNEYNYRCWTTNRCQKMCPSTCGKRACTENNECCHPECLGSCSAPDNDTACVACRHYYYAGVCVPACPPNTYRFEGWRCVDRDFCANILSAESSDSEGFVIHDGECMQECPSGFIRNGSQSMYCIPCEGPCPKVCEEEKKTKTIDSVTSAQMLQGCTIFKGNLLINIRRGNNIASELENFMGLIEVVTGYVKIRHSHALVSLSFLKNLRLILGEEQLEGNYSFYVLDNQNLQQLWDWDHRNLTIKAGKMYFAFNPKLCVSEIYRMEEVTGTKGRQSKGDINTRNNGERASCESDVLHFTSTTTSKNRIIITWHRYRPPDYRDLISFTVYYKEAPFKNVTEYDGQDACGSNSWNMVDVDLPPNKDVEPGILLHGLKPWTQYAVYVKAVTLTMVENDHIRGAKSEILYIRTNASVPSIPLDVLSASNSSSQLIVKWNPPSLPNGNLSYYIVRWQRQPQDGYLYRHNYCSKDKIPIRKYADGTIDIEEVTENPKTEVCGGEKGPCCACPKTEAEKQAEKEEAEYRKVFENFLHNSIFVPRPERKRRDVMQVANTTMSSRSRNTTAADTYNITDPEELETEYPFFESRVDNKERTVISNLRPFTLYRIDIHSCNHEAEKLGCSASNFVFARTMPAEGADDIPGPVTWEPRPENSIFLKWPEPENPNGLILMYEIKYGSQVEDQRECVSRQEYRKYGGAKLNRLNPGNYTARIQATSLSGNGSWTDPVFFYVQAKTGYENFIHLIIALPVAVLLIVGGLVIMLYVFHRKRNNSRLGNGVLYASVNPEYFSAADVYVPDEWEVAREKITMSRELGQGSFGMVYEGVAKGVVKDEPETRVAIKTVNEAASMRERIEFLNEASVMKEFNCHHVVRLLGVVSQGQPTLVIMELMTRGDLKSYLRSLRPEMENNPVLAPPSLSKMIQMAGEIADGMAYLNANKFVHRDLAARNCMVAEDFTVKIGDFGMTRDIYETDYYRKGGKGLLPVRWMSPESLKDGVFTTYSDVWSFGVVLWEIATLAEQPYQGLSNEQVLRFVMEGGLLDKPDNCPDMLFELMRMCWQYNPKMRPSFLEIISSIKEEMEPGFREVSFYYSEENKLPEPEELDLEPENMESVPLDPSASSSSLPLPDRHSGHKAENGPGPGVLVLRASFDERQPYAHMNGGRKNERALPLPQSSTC
Sequence of EGFRΔ19del/T790M/C797S (P00533 with tags, fused parts or gaps DEL746-750/T790M/C797S, form open): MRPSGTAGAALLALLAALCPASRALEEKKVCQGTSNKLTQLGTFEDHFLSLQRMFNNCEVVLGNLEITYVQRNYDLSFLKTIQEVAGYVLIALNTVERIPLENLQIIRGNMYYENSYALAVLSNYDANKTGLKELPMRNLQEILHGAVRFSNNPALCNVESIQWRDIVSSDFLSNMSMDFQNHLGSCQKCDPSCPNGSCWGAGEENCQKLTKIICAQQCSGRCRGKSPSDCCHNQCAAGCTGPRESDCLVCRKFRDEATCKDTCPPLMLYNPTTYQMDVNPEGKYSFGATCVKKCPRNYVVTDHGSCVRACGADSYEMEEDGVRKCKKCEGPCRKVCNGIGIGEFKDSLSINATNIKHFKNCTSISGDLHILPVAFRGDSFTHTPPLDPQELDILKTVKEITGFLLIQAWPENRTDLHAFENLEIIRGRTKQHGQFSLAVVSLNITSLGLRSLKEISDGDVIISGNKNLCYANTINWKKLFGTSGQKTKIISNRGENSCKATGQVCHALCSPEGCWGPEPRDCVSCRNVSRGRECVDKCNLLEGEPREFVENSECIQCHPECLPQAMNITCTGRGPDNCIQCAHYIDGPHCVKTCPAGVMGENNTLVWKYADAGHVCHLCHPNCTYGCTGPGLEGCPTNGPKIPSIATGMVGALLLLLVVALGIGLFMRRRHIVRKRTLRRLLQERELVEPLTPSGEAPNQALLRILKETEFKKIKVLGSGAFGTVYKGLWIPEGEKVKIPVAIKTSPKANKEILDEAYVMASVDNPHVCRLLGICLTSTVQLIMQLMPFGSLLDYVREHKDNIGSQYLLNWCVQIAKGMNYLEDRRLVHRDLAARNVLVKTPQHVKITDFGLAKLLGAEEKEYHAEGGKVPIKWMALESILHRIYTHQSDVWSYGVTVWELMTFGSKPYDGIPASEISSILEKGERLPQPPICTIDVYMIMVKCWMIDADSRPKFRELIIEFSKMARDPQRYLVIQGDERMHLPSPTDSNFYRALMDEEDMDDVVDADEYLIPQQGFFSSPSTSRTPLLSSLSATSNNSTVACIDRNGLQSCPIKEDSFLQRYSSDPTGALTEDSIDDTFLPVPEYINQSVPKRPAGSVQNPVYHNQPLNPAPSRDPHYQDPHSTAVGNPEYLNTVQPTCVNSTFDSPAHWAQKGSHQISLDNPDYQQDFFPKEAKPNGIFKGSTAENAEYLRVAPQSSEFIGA
Sequence of Ba/F3 cells with EGFR Δ19del/T790M/C797S mutation gene stably overexpressed (P00533 with tags, fused parts or gaps DEL746-750/T790M/C797S, form open): as above
Sequence of EGFR WT (P00533 25-1210): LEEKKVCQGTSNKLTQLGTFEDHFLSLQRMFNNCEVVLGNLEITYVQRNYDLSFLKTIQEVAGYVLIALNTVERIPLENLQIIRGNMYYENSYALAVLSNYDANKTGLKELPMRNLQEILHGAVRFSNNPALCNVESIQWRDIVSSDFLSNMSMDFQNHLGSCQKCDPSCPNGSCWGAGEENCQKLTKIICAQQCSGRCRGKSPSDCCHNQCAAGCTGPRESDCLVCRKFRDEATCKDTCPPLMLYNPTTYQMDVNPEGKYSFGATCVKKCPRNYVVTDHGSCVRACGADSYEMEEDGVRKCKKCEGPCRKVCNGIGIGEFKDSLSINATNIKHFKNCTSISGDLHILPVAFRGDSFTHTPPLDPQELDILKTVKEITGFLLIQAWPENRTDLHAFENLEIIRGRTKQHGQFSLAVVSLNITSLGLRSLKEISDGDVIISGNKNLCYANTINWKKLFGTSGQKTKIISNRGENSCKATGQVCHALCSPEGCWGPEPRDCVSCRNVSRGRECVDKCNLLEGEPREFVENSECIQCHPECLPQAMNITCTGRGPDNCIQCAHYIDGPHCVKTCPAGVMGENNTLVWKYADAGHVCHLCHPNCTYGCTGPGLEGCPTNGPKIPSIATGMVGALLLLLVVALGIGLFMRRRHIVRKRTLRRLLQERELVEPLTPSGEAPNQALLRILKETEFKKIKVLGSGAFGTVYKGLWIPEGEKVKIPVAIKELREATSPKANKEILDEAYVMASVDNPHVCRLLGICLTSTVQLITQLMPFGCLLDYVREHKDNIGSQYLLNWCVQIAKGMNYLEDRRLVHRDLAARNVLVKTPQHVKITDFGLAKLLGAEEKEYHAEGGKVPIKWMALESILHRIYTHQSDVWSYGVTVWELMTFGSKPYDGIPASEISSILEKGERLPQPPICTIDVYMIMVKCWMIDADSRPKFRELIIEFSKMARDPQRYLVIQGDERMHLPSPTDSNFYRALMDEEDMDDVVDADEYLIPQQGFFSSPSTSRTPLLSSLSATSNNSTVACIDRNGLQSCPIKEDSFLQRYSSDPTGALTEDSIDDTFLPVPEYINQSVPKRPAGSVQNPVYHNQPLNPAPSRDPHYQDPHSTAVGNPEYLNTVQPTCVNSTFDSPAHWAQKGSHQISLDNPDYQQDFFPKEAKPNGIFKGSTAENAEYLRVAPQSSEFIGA

SMILES | IC50 (EGFRΔ19del/T790M/C797S) [nM] | GI50 [1] [nM] | IC50 (A431; Homo sapiens, A-431, 72 h) [nM] | IC50 (IGF1R) [nM] | IC50 (EGFR WT) [nM] | IC50 (A431) [nM]
CCc1cc(Nc2ncc(Br)c(Nc3ccc(-c4ccc(C)nc4)cc3P(C)(C)=O)n2)c(OC)cc1N1CCC(N2CCN(C)CC2)CC1 [Compound 82, (2-((5-Bromo-2-((5-ethyl-2-methoxy-4-(4-(4-methylpiperazin-1-yl)piperidin-1-yl)phenyl)amino)pyrimidin-4-yl)amino)-5-(6-methylpyridin-3-yl)phenyl)dimethylphosphine oxide] | 0.5 | 27.6 | 1620 | 179 | 29.1 | 
CCc1cc(Nc2ncc(Br)c(Nc3ccc(-c4cn(C)c5ncccc45)cc3P(C)(C)=O)n2)c(OC)cc1N1CCC(N2CCN(C)CC2)CC1 [Compound 46, (2-((5-Bromo-2-((5-ethyl-2-methoxy-4-(-4-(4-methylpiperazin-1-yl)piperidin-1-yl)phenyl)amino)pyrimidin-4-yl)amino)-5-(1-methyl-1H-pyrrolo[2,3-b]pyridin-3-yl)phenyl)dimethylphosphine oxide] | 1.7 | 30.3 | 2300 | 628 | 47.6 | 
CCc1cc(Nc2ncc(Br)c(Nc3ccc(-c4cncc(OC)n4)cc3P(C)(C)=O)n2)c(OC)cc1N1CCC(N2CCN(C)CC2)CC1 [Compound 13] | 0.4 | 40.5 | 1680 | 182 | 31.1 | 
CCc1cc(Nc2ncc(Cl)c(Nc3ccc(-c4ccc5ocnc5c4)cc3P(C)(C)=O)n2)c(OC)cc1N1CCC(N2CCN(C)CC2)CC1 [Compound 17, (5-(Benzo[d]oxazol-5-yl)-2-((5-chloro-2-((5-ethyl-2-methoxy-4-(4-(4-methylpiperazin-1-yl)piperidin-1-yl)phenyl)amino)pyrimidin-4-yl)amino)phenyl)dimethylphosphine oxide] | 0.7 | 30 | 2200 | 363 | 20.1 | 
CCc1cc(Nc2ncc(Br)c(Nc3ccc(-c4ccc(C#N)cc4)cc3P(C)(C)=O)n2)c(OC)cc1N1CCC(N2CCN(C)CC2)CC1 [Compound 10] | 0.6 | 9.7 | 14300 | 109 | 19.5 | 
CCc1cc(Nc2ncc(Cl)c(Nc3ccc(-c4nccc(OC)n4)cc3P(C)(C)=O)n2)c(OC)cc1N1CCC(N2CCN(C)CC2)CC1 [Compound 19, (2-((5-Chloro-2-((5-ethyl-2-methoxy-4-(4-(4-methylpiperazin-1-yl)piperidin-1-yl)phenyl)amino)pyrimidin-4-yl)amino)-5-(4-methoxypyrimidin-2-yl)phenyl)dimethylphosphine oxide] | 0.6 | 29.6 | 864 | 144 | 22 | 
CCc1cc(Nc2ncc(Br)c(Nc3ccc(-c4cnn(C)n4)c(F)c3P(C)(C)=O)n2)c(OC)cc1N1CCC(N2CCN(C)CC2)CC1 [Compound 84, (6-((5-Bromo-2-((5-ethyl-2-methoxy-4-(4-(4-methylpiperazin-1-yl)piperidin-1-yl)phenyl)amino)pyrimidin-4-yl)amino)-2-fluoro-3-(2-methyl-2H-1,2,3-triazol-4-yl)phenyl)dimethylphosphine oxide] | 0.1 | 5.8 |  | 54.9 |  | 1210
CCc1cc(Nc2ncc(Br)c(Nc3ccc(-c4ccc(N(C)C)nn4)cc3P(C)(C)=O)n2)c(OC)cc1N1CCC(N2CCN(C)CC2)CC1 [Compound 77, (2-((5-Bromo-2-((5-ethyl-2-methoxy-4-(4-(4-methylpiperazin-1-yl)piperidin-1-yl)phenyl)amino]pyrimidin-4-yl)amino)-5-(6-(dimethylamino)pyridazin-3-yl)phenyl)dimethylphosphine oxide] |  | 27.2 |  |  |  | > 10000
CCc1cc(Nc2ncc(Br)c(Nc3ccc(-c4nccnc4OC)cc3P(C)(C)=O)n2)c(OC)cc1N1CCC(N2CCN(C)CC2)CC1 [Compound 72, (2-((5-Bromo-2-((5-ethyl-2-methoxy-4-(4-(4-methylpiperazin-1-yl)piperidin-1-yl)phenyl)(amino)amino]pyrimidin-4-yl)amino)-5-(3-methoxypyrazin-2-yl)phenyl)dimethylphosphine oxide] |  | 29.4 | > 10000 |  |  | 

More lines, in order of falling GI50 [1], values ahead:

IC50 (EGFRΔ19del/T790M/C797S) [nM] | GI50 [1] [nM] | IC50 (A431; Homo sapiens, A-431, 72 h) [nM] | IC50 (IGF1R) [nM] | IC50 (EGFR WT) [nM] | IC50 (A431) [nM] | SMILES
1.3 | 24.5 | 512 | 335 | 38.8 |  | CCc1cc(Nc2ncc(Br)c(Nc3ccc(-c4cn(C)nc4OC)cc3P(C)(C)=O)n2)c(OC)cc1N1CCC(N2CCN(C)CC2)CC1 [Compound 63]
0.7 | 21.8 | 812 | 150 |  |  | CCc1cc(Nc2ncc(Cl)c(Nc3ccc(-c4ccccc4)cc3P(C)(C)=O)n2)c(OC)cc1N1CCC(N2CCN(C)CC2)CC1 [Compound 2, (4-((5-Chloro-2-((5-ethyl-2-methoxy-4-(4-(4-methylpiperazin-1-yl)piperidin-1-yl)phenyl)amino)pyrimidin-4-yl)amino)-[1,1′-biphenyl]-3-yl)dimethylphosphine oxide]
0.6 | 18.9 | 1020 | 494 | 28.6 |  | CCc1cc(Nc2ncc(Br)c(Nc3ccc(-c4cccc5c4COC5)cc3P(C)(C)=O)n2)c(OC)cc1N1CCC(N2CCN(C)CC2)CC1 [Compound 11, (2-((5-Bromo-2-((5-ethyl-2-methoxy-4-(4-(4-methylpiperazin-1-yl)piperidin-1-yl)phenyl)amino)pyrimidin-4-yl)amino)-5-(1,3-dihydroisobenzofuran-4-yl)phenyl)dimethylphosphine oxide]
0.3 | 15.7 | 1560 | 186 | 24 |  | CCc1cc(Nc2ncc(Br)c(Nc3ccc(-c4cnc(N(C)C)nc4)cc3P(C)(C)=O)n2)c(OC)cc1N1CCC(N2CCN(C)CC2)CC1 [Compound 74, (2-((5-Bromo-2-((5-ethyl-2-methoxy-4-(4-(4-methylpiperazin-1-yl)piperidin-1-yl)phenyl)amino)pyrimidin-4-yl)amino)-5-(2-(dimethylamino)pyrimidin-5-yl)phenyl)dimethylphosphine oxide]
 | 2.1 | 99.6 |  |  |  | COc1cc(N2CCC(N3CCCCC3)CC2)c(-c2cnn(C)c2)cc1Nc1ncc(Br)c(Nc2ccc(-c3ccccc3)cc2P(C)(C)=O)n1 [Compound K-100]

Reference: US20220402948A1, “EGFR INHIBITOR, COMPOSITION AND PREPARATION METHOD THEREFOR” (BETTA PHARMACEUTICALS CO., LTD., priority 2019, published 2022)
